Measurements: PMC3813382 (The Journal of General Physiology, 2013)
Positions count from the first letter of the chain named.

Key:
F258A Slo2.1 channels = molecular target: T1, F258A Slo2.1 channels (Homo sapiens, UniProt Q6UVM3, F258A); experiment: Activation of ISlo2.1 by NFA, two-electrode voltage clamp in oocytes; assay type: cell-based
T1 sequence (Q6UVM3 1-1135 F258A): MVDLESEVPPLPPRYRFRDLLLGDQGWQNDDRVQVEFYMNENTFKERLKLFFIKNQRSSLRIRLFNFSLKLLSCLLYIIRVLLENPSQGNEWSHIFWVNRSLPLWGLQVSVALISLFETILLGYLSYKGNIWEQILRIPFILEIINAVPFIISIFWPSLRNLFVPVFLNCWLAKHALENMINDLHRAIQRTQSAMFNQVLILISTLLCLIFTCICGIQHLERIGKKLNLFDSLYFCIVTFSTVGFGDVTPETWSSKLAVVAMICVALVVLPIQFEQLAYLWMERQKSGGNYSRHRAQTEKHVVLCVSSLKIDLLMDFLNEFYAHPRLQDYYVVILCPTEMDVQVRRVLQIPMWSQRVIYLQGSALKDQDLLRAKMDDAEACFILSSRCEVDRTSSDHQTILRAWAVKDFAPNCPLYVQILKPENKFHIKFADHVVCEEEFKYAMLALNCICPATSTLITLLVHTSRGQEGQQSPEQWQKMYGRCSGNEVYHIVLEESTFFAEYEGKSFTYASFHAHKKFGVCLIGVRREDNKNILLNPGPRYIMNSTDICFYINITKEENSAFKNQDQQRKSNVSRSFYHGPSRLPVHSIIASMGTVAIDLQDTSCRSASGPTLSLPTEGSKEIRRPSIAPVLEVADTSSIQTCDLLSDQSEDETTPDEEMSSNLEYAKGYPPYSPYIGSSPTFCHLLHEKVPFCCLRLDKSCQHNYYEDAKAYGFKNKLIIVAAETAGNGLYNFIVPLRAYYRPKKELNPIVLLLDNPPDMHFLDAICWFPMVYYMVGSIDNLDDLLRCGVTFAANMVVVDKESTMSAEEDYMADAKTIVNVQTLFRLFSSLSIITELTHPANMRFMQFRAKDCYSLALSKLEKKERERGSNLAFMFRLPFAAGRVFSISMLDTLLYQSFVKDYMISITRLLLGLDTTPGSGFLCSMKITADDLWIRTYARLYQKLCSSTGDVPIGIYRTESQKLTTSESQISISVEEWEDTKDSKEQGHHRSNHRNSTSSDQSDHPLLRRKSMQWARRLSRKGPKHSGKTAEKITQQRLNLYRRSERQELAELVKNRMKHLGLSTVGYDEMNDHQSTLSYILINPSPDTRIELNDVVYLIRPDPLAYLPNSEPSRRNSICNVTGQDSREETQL

F240C Slo2.1 channels = molecular target: T2, F240C Slo2.1 channels (Homo sapiens, UniProt Q6UVM3, F240C); experiment: as above; assay type: cell-based
T2 sequence (Q6UVM3 1-1135 F240C): T1 sequence (Q6UVM3 1-1135 F258A) with F240C, A258F

O=C(O)c1cccnc1Nc1cccc(C(F)(F)F)c1 [NFA, niflumic acid]
EC50 (F258A Slo2.1 channels): 400 ± 50 µM | Hill coefficient nH of NFA activation (F258A Slo2.1 channels; F258A): 1.2 ± 0.08 | activation of F240C currents by NFA (F240C Slo2.1 channels; KCM211 solution ([K^+]e 2 mM)): not further activated by NFA | activation of F240C currents by NFA (F240C Slo2.1 channels; [K^+]e elevated to 104 mM, 1 mM NFA): further activated by 1 mM NFA
